How the values were obtained:
Test in all cases: relative viability (nuclei count vs DMSO), 5 days (fraction); higher = more cells survive
Tosedostat + Foretinib = compound: CC(C)C[C@@H](C(=O)N[C@H](C(=O)OC1CCCC1)c1ccccc1)[C@H](O)C(=O)NO [Tosedostat] + COc1cc2c(Oc3ccc(NC(=O)C4(C(=O)Nc5ccc(F)cc5)CC4)cc3F)ccnc2cc1OCCCN1CCOCC1 [Foretinib] (partner 0.25 µM)
Procedure, shortened: (§1)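 Relative viability was taken as the ratio of nuclei in treated wells to nuclei in vehicle wells. Lung cancer cell lines in 1536-well plates received compounds by pin tool one day after seeding, either one drug alone or a fixed anchor-drug dose plus five library-drug doses (not always all listed) in √10 steps. Nuclei were counted on 4× images after 5 days of treatment, and values are medians of duplicate plates.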

Tosedostat + Crizotinib = compound: CC(C)C[C@@H](C(=O)N[C@H](C(=O)OC1CCCC1)c1ccccc1)[C@H](O)C(=O)NO [Tosedostat] + C[C@@H](Oc1cc(-c2cnn(C3CCNCC3)c2)cnc1N)c1c(Cl)ccc(F)c1Cl [Crizotinib] (partner 1 µM)
Procedure, shortened: as §1

Tosedostat + Linsitinib = compound: CC(C)C[C@@H](C(=O)N[C@H](C(=O)OC1CCCC1)c1ccccc1)[C@H](O)C(=O)NO [Tosedostat] + C[C@]1(O)C[C@@H](c2nc(-c3ccc4ccc(-c5ccccc5)nc4c3)c3c(N)nccn32)C1 [Linsitinib] (partner 1 µM)
Procedure, shortened: as §1

[1] = compound: CC1=NN=C(O1)C2=NN=C(C=C2)N3CCC(CC3)OC4=C(C=CC(=C4)F)Cl + CS(=O)(=O)N1CCN(Cc2cc3nc(-c4cccc5[nH]ncc45)nc(N4CCOCC4)c3s2)CC1 [Pictilisib] (partner 1 µM)
Procedure, shortened: as §1

Cell Line	relative viability (Tosedostat + Foretinib; first compound 0.02 µM)	relative viability (Tosedostat + Foretinib; first compound 0.06325 µM)	relative viability (Tosedostat + Foretinib; first compound 0.2 µM)	relative viability (Tosedostat + Foretinib; first compound 0.6325 µM)	relative viability (Tosedostat + Foretinib; first compound 2 µM)	relative viability (Tosedostat + Crizotinib; first compound 0.02 µM)	relative viability (Tosedostat + Crizotinib; first compound 0.06325 µM)	relative viability (Tosedostat + Crizotinib; first compound 0.2 µM)	relative viability (Tosedostat + Crizotinib; first compound 0.6325 µM)	relative viability (Tosedostat + Crizotinib; first compound 2 µM)	relative viability (Tosedostat + Linsitinib; first compound 0.02 µM)	relative viability (Tosedostat + Linsitinib; first compound 0.06325 µM)	relative viability (Tosedostat + Linsitinib; first compound 0.2 µM)	relative viability (Tosedostat + Linsitinib; first compound 0.6325 µM)	relative viability (Tosedostat + Linsitinib; first compound 2 µM)	relative viability ([1]; first compound 0.253 µM)	relative viability ([1]; first compound 0.8 µM)	relative viability ([1]; first compound 2.53 µM)	relative viability ([1]; first compound 8 µM)
NCI-H2347	0.711	0.731	1.04	0.955	0.969	0.818	0.666	0.676	0.747	0.771	0.989	0.967	0.992	0.949	0.975	0.024	0.53	0.422	0.753
NCI-H1651	0.864	0.736	0.764	0.906	0.688	0.918	0.851	0.878	0.897	0.817	0.996	0.963	1.11	0.875	0.863	0.506	0.665	0.524	0.417
NCI-H2009	1.34	1.15	1.19	1.11	1.09	1.07	1.07	1	1.02	0.924	1.2	1.12	1.17	0.881	1.02	0.711	0.618	0.659	0.637
PC-3 [JPC-3]	1.01	1.02	0.997	0.778	0.65	1	0.885	0.998	0.942	0.665	1.03	1	1	0.946	0.653	0.602	0.677	0.84	0.654
COR-L23	1.04	1.03	0.975	1.07	1.06	0.86	0.554	0.642	0.604	0.524	1.1	0.805	0.827	0.869	0.877	0.66	0.621	0.686	0.469
COR-L 105	1.3	0.8	1.06	0.753	0.69	0.865	0.751	0.827	0.493	0.548	0.841	0.876	0.778	0.662	0.653	0.426	0.405	0.334	0.378
LK-2	1.1	0.926	1.02	1.11	1.68	0.218	0.225	0.232	0.249	0.215	0.883	0.465	0.562	0.743	0.913	0.651	0.716	0.869	0.751
201T	1.11	1.24	1.22	1.32	1.17	1.04	1.05	1.08	1.11	1.09	0.99	1.09	1.11	1.21	1.17	0.537	0.634	0.681	0.663
NCI-H838	1.1	1.02	1.04	1.08	1.13	0.969	0.92	0.826	0.818	0.948	1.09	0.982	1.02	1.08	1.31	0.422	0.459	0.442	0.416
H3255	0.871	0.902	1.02	0.709	0.796	0.976	0.846	0.812	0.669	0.827	0.94	0.949	0.917	0.984	0.988	0.505	0.438	0.433	0.397
PC-14	0.948	0.936	0.987	0.868	0.912	0.843	0.805	0.893	0.842	0.92	0.97	0.973	0.982	0.915	0.918	0.603	0.735	0.781	0.702
NCI-H2228	0.998	0.774	1.11	0.768	0.751	0.599	0.438	0.48	0.418	0.445	0.792	0.63	0.686	0.612	0.525	0.297	0.313	0.538	0.404
NCI-H322M	0.995	0.899	0.93	0.904	0.857	0.877	0.957	0.841	0.868	0.71	0.8	0.902	0.894	0.877	0.839	0.511	0.486	0.482	0.451
NCI-H1944	0.984	0.787	0.864	0.822	0.773	1.11	1.01	1.04	1.08	0.942	1.17	1.14	1.28	1.12	1.02	0.31	0.381	0.381	0.331
NCI-H727	0.908	0.622		0.602	0.487	0.983	0.784	0.658	0.557	0.513	0.264	0.266	0.272	0.168	0.322	0.475	0.4	0.498	0.403
A549	0.925	0.967	0.998	0.974	0.652	0.869	0.726	0.702	0.652	0.683	0.663	0.621	0.562	0.532	0.608	0.406	0.255	0.319	0.234
